Paper PMC9863691, “A Novel Ferroptosis Inhibitor UAMC-3203, a Potential Treatment for Corneal Epithelial Wound” (Pharmaceutics, 2022)
Values after ≈ are worked out from the molar mass of the structure shown.

Columns and labels:
solubility in buffers = format: physicochemical; conditions: for water solubility: room temperature, 72 h
Procedure: Compound UAMC-3203 was synthetized in the laboratory of Medicinal Chemistry at the University of Antwerp, as reported by Devisscher L. et al.. Solubility of UAMC-3203 was determined in 0.1 M citrate buffer (pH 5 and pH 6) and phosphate-buffered saline (PBS, Gibco, Life Technologies Limited, Paisley, UK) at pH 7.4. Excess of UAMC-3203 (10–20 mg) was added to 500 µL of buffer in glass vials that were kept at room temperature and mixed (150 rpm) for 72 h. The pH of the solutions was measured daily with calibrated pH meter (Orion Research Incorporated, Boston, MA, USA) and adjusted if needed (with 0.1 N sodium hydroxide or 0.1 N hydrochloric acid). After 72 h, samples were withdrawn and centrifuged at 13,000 rpm for 15 min. The supernatant was collected and analyzed by high-pressure liquid chromatography (HPLC) for UAMC-3203 concentration.
(§1) The quantitation of UAMC-3203 was performed with […] reverse-phase HPLC system consisting of a degasser (G1379B), multi-sampler (G1367D), a binary pump (G1312B), a thermostat (G1316B), and a diode array detector (DAD) detector (G1315C). A Zorbax Eclipse XDB-C18 (4.6 × 50 mm, 4 μm; Agilent Technologies, Santa Clara, CA, USA) column was used for the analyses. The mobile phase was composed of 0.1% […] (Sigma-Aldrich, St. Louis, MO, USA) in Milli-Q-H2O and 0.1% […] in acetonitrile (LC-MS Chromasolv, Honeywell, Riedel-de Haen, Seelze, Germany) (65:35% v/v). Isocratic analysis was performed at a flow rate of 1 mL/min. The injection volume was 5 μL, and the detection wavelength was 240 nm.

[1] = chemical stability of 100 µM solution in PBS; format: physicochemical
Procedure: The chemical stability of 100 µM UAMC-3203 in PBS (pH 7.4) was investigated for 30 days as described previously. Briefly, four batches with triplicates were stored at 4, 25, or 37 °C with light protection and at 25 °C without light protection. Separate solutions were used for pH-dependent stability studies. Samples were collected, and pH was measured at various times. The samples were stored at −20 °C until HPLC analysis.
as §1

[2] = drug distribution in porcine cornea ex vivo; format: in vitro ADME
Procedure: Fresh porcine (a crossbreed between Matias and Yorkside) eyes were collected in the laboratory animal center at the University of Eastern Finland. The eyes were stored overnight in a keratinocyte serum-free medium (Gibco, Life Technologies Corporation, Grand Island, NY, USA) at +4 °C. The cornea was excised using an incision along the limbus, as described earlier.
The isolated corneas were rinsed with PBS and mounted in vertical Franz diffusion cells (PermeGear, Inc., Hellertown, PA, USA). Small magnetic stir bars were added to each receiver chamber, and 5 mL of 35 °C BSS Plus supplemented with 10 mM of 4-(2-hydroxyethyl)-1-piperazineethanesulfonic acid (HEPES; Lonza Bioscience, Walkersville, MD, USA) was added to the receiver compartment of each Frantz cell. The experiment was initiated by adding 50 µM UAMC-3203 in 10 mM HEPES-BSS Plus solution to the donor compartment. Samples of 500 µL from donor compartments and corneas were collected at the end of the experiments (at 5, 30, 60, and 120 min). The cornea samples were rinsed with PBS, the epithelial layer was scraped off from the corneas, and the remaining stroma–endothelium samples were cut to pieces. The experiments were carried out in triplicates. The samples were stored at −80 °C until liquid chromatography–tandem mass spectrometry (LC-MS/MS) analyses were performed.
The values of apparent partition coefficients (Kp) were calculated using drug concentrations on the tissue samples (at 120 min) and in the donor compartment buffer at time zero (ng/mL).
Quantitative analysis of UAMC-3203 was performed with the LC-MS/MS system that consisted of an Agilent 1290 series liquid chromatograph connected to an Agilent 6495 triple-quadruple mass spectrometer (Agilent Technologies, Inc., USA). The mobile phase consisted of 0.1% formic acid (Fisher chemical, Geel, Belgium), 1 mM ammonium formate (Honeywell, Fluka, Seelze, Germany) in Milli-Q-H2O (eluent A), and acetonitrile (LC-MS Chromasolv, Honeywell, Riedel-de Haen, Seelze, Germany) (eluent B). Gradient elution was used: 0.0 to 3.0 min: 25%→95% B, 3.0 to 3.5 min: 95% B, 3.5 to 3.6 min: 95%→25% B, 3.6 to 5.0 min 25% B. Solvent flow was 0.3 mL/min, and Poroshell 120 SB-C18 column (2.1 mm × 50 mm, 2.7 µm, Agilent Technologies, Inc., USA) was maintained at 60 °C. The injection volume was 2 µL. Nitrogen was used as a drying, nebulizer, and collision gas. The following conditions were used in the electrospray ion source: positive ion mode, sheath gas flow rate 11 L/min at 350 °C, drying gas flow rate 16 L/min at 200 °C, nebulizer gas pressure adjusted to 25 psi, capillary voltage 3500 V (ESI+), fragmentor voltage 380 V, dwell time 150 ms and cell accelerator voltage 5 V. The data were analyzed with Agilent Mass Hunter Quantitative Analyzed software (vB.09.00, build 9.0.647.0, Agilent Technologies, CA, USA). The precursor and fragment ions are presented in Supplementary Table S1.

ferroptosis = system: ferroptosis; design: method as in PMID 30354101; conditions: read-out: in vitro potency IC50 (ferroptosis); cited from earlier work
[3] = pH 7.4
[4] = system: mouse model of (multi)organ dysfunction and death; design: method as in PMID 35210435; conditions: cited from earlier work

## O=S(=O)(NCCN1CCNCC1)c1ccc(NC2CCCCC2)c(NCc2ccccc2)c1 [UAMC-3203]
Solubility in buffers
  solubility at pH 6.0 and 7.4 relative to pH 5.0: about 3.5 times
Solubility in buffers; pH 5.0, 0.1 M citrate buffer
  water solubility: 36.7 ± 5.7 µM (≈ 17.3 µg/mL)
Solubility in buffers; pH 6.0, 0.1 M citrate buffer
  water solubility: 127.9 ± 16.1 µM (≈ 60.3 µg/mL)
Solubility in buffers; pH 7.4, PBS
  water solubility: 127.3 ± 17.3 µM (≈ 60 µg/mL)
[1]; 100 µM in PBS pH 7.4, various temperatures and light exposure conditions
  % of initial concentration at day 30: about 90%
[1]; starting pH 7.4, all conditions
  pH of the solution during 30 days: 7.5–7.6
[2]
  Kp epithelium/donor relative to Kp stroma/epithelium: ≈ 52 times
[2]; 50 µM donor
  levels in epithelium higher than in stroma–endothelium: 1–2 orders of magnitude
[2]; 50 µM donor, 5 min
  level in the cornea at 5 min: ≈ 20 µM
[2]; 50 µM donor, 120 min
  Kp epithelium/donor: 1.95 ± 0.45
  Kp stroma/epithelium: 0.04 ± 0.02
[2]; 120 min
  epithelium concentration relative to stroma at 120 min: ≈ 28 times
[2]; over the time points
  concentration in corneal epithelium relative to corneal stroma: 12–38 fold
ferroptosis
  IC50: 10 nM
[3]
  Log D7.4: 0.95
[4]
  efficacy compared to Fer-1: more effective
